Assay results as given in PubChem BioAssay (NCI).
Values joined by “and” are separate entries in the source; they are usually repeats but may differ in a detail not shown here. Equal values may be shown once.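 Cells were grown in 96-well plates and exposed to each compound for 48 hours at five concentrations; endpoints were interpolated linearly between bracketing concentrations, or set to the highest concentration if not reached. GI50 is the concentration that inhibits growth by half. The concentration for full growth arrest is given as TGI.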

How the values were obtained:
Experiment in all cases: DTP human tumour cell line panel, 48 h
HCT-15 colon = tested on: HCT-15 colon
MALME-3M melanoma = tested on: MALME-3M melanoma
SNB-19 CNS = tested on: SNB-19 CNS
HL-60(TB) leukemia = tested on: HL-60(TB) leukemia
NCI-H226 lung = tested on: NCI-H226 lung
KM12 colon = tested on: KM12 colon
NCI-H522 lung = tested on: NCI-H522 lung
TK-10 renal = tested on: TK-10 renal
RPMI-8226 leukemia = tested on: RPMI-8226 leukemia
LOX IMVI melanoma = tested on: LOX IMVI melanoma

| SMILES | GI50 (HCT-15 colon) [µM] | TGI (HCT-15 colon) [µM] | GI50 (MALME-3M melanoma) [µM] | TGI (MALME-3M melanoma) [µM] | GI50 (SNB-19 CNS) [µM] | TGI (SNB-19 CNS) [µM] | GI50 (HL-60(TB) leukemia) [µM] | TGI (HL-60(TB) leukemia) | GI50 (NCI-H226 lung) [µM] | TGI (NCI-H226 lung) [µM] | GI50 (KM12 colon) | TGI (KM12 colon) [µM] | GI50 (NCI-H522 lung) [µM] | TGI (NCI-H522 lung) [µM] | GI50 (TK-10 renal) [µM] | TGI (TK-10 renal) [µM] | GI50 (RPMI-8226 leukemia) | TGI (RPMI-8226 leukemia) [µM] | TGI (LOX IMVI melanoma) [µM] | GI50 (LOX IMVI melanoma) |
| --- | --- | --- | --- | --- | --- | --- | --- | --- | --- | --- | --- | --- | --- | --- | --- | --- | --- | --- | --- | --- |
| Oc1ccc(Cl)cc1-c1cc(-c2ccccc2Cl)[nH]n1 | 0.488 | > 100 | 9.76 | > 100 | > 100 | > 100 | 4.22 | > 100 µM | 13.8 | > 100 | 2.41 µM | > 100 | 3.26 | > 100 | 29.4 | > 100 | 3.15 µM | > 100 | – | – |
| CCOC(=O)C(Sc1ccccc1)c1c(OC)cc(=O)oc1/C=[N+](/[O-])c1ccc(N(C)C)cc1 (centres undefined) | – | 31.8 | – | 58.5 | – | > 100 | – | – | – | – | – | 47.4 | – | – | – | 89.5 | – | 48 | 26.6 | – |
| O=C(O)C(Cc1ccccc1)N1C(=O)N/C(=C\c2ccc(F)cc2)C1=O (centres undefined) | – | > 100 | – | – | – | – | – | > 100 µM | – | > 100 | – | > 100 | – | > 100 | – | > 100 | – | > 100 | > 100 | – |
| O=[N+]([O-])c1cnc(Sc2ccncn2)s1 | 1.75 | 3.44 | 2.07 | 3.94 | 15.9 | 31.9 | 1.69 | 4.18 µM | 8.37 | 34 | 10.8 µM | 23.1 | 1.62 | 3.34 | 2.14 | 4.22 | – | – | 6.7 | 2.65 µM |
| CC1=C(C(=O)Nc2ccccc2C)C(c2ccco2)C(C(=O)Nc2ccccc2C)=C(C)N1C | – | – | – | > 100 | – | > 100 | – | > 100 µM | – | > 100 | – | > 100 | – | > 100 | – | > 100 | – | > 100 | > 100 | – |
| CCOC(=O)COc1cccc2c1C(=O)CCO2 | – | > 100 | – | > 100 | – | > 100 | – | > 100 µM | – | – | – | > 100 | – | > 100 | – | > 100 | – | > 100 | > 100 | – |
| CCOC(=O)C1=C(C)CC2C(=O)OC(=O)C2C1(C)C (centres undefined) | – | > 100 | – | > 100 | – | > 100 | – | > 100 µM | – | > 100 | – | > 100 | – | > 100 | – | > 100 | – | > 100 | – | – |
| O=[S@@]1Nc2ccc(Br)cc2S1 | – | – | – | > 100 | – | 39.3 | – | 65.2 µM | – | > 100 | – | > 100 | – | 68.6 | – | > 100 | – | > 100 | > 100 | – |
| COc1cc2cnc3c4cc(OC(C)C)c(OC)cc4ccc3c2cc1OC | – | > 100 | – | > 100 | – | > 100 | – | – | – | – | – | > 100 | – | > 100 | – | > 100 | – | > 100 | – | – |
| COC(=O)[C@@H](C)C[C@H](Cc1ccc(F)cc1)NC(=O)c1csc([C@@H](C[C@H](C(C)C)N(C)C(=O)[C@@H](NC(=O)[C@H]2CCCCN2C)C(C)C)OC(C)=O)n1 | – | > 16.7 | 4.51 | > 16.7 | – | > 16.7 | – | 0.00229 µM and 0.00952 µM | – | – | 0.000953 µM and 0.00636 µM | > 16.7 | 0.0002 | 0.00082 | – | – | 0.00108 µM and 0.00682 µM | > 16.7 | > 16.7 | 0.00184 µM and 0.0095 µM |
| COc1cc2nc(-c3ccc(C(F)(F)F)cc3)cc(OCCCN3CCC(O)CC3)c2cc1OC | 0.667 | 13.8 | 2.65 | 11.8 | 10.5 | 28.3 | 13.9 | 31.9 µM | 1.59 | 5.37 | 6.87 µM | 24 | 4.15 | 19.3 | 11.5 | 25.7 | – | – | 0.447 | 0.19 µM |
| CN(CC(=O)O)S(=O)(=O)c1ccc2ccccc2c1 | – | > 100 | – | > 100 | – | > 100 | – | > 100 µM | – | – | – | > 100 | – | > 100 | – | > 100 | – | > 100 | > 100 | – |
| COC(=O)[C@@]12C3=NO[C@]1(C(=O)OC)C(O[Si](C)(C)C(C)(C)C)[C@H]1OC(C)(C)O[C@H]1[C@@H]2C(OCc1ccccc1)CC3 (some centres undefined) | – | > 100 | – | – | – | 99.8 | – | > 100 µM | – | > 100 | – | > 100 | – | – | – | > 100 | – | > 100 | > 100 | – |
| FC(F)(F)c1ccc(C2SCc3nc4ccccc4n32)cc1 (centres undefined) | – | – | – | > 100 | – | > 100 | – | 96.2 µM | – | > 100 | – | > 100 | – | – | – | > 100 | – | > 100 | – | – |
| CC1=C(C#N)C23C(=O)c4ccccc4C(O)=C2C(=O)C=CC3(O)N1Cc1ccccc1 (centres undefined) | 15 | > 100 | 22 | 47.1 | 40.1 | > 100 | 37.8 | > 100 µM | – | – | 42.4 µM | > 100 | 22.9 | 58.1 | 36.9 | > 100 | 34 µM | > 100 | > 100 | 33 µM |
| CC(C)=CCCc1c(C)ccc2c1C(=O)C(=O)C(C(C)C)=C2 | – | 7.14 | – | 6.78 | – | > 22 | – | 5.03 µM | – | > 22 | – | > 22 | – | 6.39 | – | 8.81 | – | 6.16 | – | – |
| Cc1cc(=O)[nH]c(NNC(C#N)c2cccc(O)c2)n1 (centres undefined) | – | > 100 | – | > 100 | – | – | – | > 100 µM | – | > 100 | – | > 100 | – | > 100 | – | > 100 | – | > 100 | > 100 | – |
| COc1ccc2nc3cc(Cl)ccc3c(Sc3ccccc3[N+](=O)[O-])c2c1 | – | > 100 | – | > 100 | – | > 100 | – | – | – | 67.8 | – | > 100 | – | > 100 | – | > 100 | – | – | > 100 | – |
| COc1cccc(NC(=O)CC(=O)n2nc(C)c(N=Nc3ccccc3)c2C)c1 | – | – | – | > 100 | – | > 100 | – | – | – | > 100 | – | > 100 | – | > 100 | – | > 100 | – | > 100 | > 100 | – |
| COc1c2ccoc2c(/C=C/C=O)c2oc(-c3ccccc3)cc(=O)c12 | 2.52 | 9.06 | 3.57 | 9.17 | 12 | > 100 | 2.33 | 5.62 µM | 4.14 | 20.4 | 16.5 µM | 43.5 | 17.6 | > 100 | – | – | 2.24 µM | 5.81 | 2.8 | 1.48 µM |
